Measurements taken from ChEMBL document CHEMBL5370540, “Discovery of pyrimidine-5-carboxamide derivatives as novel salt-inducible kinases (SIKs) inhibitors for inflammatory bowel disease (IBD) treatment” (Eur J Med Chem, 2023).
The source made the active and inactive calls. The rule behind the calls is not given here.

Key:
[1] = target: Serine/threonine-protein kinase SIK1 (Homo sapiens, UniProt P57059); test: Inhibition of SIK1 (unknown origin)
[2] = Metabolic stability in human liver microsomes assessed as half life; format: ADME, Microsome
[3] = Selectivity ratio of IC50 for SIK1 (unknown origin) to IC50 for SIK2 (unknown origin)
[4] = Selectivity ratio of IC50 for SIK3 (unknown origin) to IC50 for SIK2 (unknown origin)
[5] = target: Proto-oncogene tyrosine-protein kinase Src (Homo sapiens) (UniProt P12931); test: Inhibition of cSRC (unknown origin) at 1 uM
Proto-oncogene tyrosine-protein kinase Src (Homo sapiens), sequence (P12931 2-536 limits assumed): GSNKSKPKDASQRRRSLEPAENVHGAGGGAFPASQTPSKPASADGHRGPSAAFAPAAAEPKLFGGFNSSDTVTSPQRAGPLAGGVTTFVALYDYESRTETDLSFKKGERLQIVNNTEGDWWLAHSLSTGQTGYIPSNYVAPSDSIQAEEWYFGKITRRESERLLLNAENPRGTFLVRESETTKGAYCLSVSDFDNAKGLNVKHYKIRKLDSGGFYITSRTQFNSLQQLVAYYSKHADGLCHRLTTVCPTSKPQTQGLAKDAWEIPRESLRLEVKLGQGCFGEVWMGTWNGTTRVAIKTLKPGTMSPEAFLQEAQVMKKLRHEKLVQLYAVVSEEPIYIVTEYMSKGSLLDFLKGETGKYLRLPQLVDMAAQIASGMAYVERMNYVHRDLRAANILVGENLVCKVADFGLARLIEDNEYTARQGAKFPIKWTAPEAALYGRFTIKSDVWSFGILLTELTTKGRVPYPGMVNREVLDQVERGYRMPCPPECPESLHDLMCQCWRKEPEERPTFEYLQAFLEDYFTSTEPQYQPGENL

[6] = target: Proto-oncogene tyrosine-protein kinase Src (Homo sapiens) (UniProt P12931); test: Inhibition of SRC (1 to 530 residues)(unknown origin) at 1 uM
[7] = target: Tyrosine-protein kinase Yes (Homo sapiens) (UniProt P07947); test: Inhibition of Yes (unknown origin) at 1 uM
Tyrosine-protein kinase Yes (Homo sapiens), sequence (P07947 2-543 limits assumed): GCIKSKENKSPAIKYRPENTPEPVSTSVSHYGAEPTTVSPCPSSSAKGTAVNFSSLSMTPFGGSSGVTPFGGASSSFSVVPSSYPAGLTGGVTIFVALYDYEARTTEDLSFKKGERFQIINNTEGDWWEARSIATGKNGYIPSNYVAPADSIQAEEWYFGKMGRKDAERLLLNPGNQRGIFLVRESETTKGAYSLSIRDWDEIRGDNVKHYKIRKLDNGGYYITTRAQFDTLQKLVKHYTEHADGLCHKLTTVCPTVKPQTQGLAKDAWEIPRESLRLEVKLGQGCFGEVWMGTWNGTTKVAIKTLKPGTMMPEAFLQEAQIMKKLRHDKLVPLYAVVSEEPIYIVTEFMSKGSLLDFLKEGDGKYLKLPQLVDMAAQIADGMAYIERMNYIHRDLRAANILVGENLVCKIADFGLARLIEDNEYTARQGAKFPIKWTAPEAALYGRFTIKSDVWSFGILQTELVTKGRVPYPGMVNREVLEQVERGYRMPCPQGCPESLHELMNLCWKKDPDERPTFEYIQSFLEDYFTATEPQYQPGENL

[8] = target: Tyrosine-protein kinase Fyn (Homo sapiens) (UniProt P06241); test: Inhibition of Fyn (unknown origin) at 1 uM
Tyrosine-protein kinase Fyn (Homo sapiens), sequence (P06241 2-537 limits assumed): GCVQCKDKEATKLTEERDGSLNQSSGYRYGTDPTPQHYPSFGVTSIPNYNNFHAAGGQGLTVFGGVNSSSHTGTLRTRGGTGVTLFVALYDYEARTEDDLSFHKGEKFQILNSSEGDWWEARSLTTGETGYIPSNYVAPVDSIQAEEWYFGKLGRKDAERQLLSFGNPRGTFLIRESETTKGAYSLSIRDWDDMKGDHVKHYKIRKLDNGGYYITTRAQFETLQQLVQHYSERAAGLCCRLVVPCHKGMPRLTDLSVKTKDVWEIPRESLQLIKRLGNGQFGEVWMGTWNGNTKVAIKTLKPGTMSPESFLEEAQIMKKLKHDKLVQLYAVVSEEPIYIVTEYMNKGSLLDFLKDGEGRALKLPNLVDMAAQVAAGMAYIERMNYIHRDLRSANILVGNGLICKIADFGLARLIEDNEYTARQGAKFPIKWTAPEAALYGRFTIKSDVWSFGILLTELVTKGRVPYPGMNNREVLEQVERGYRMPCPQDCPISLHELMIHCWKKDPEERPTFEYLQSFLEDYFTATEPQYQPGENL

[9] = target: Tyrosine-protein kinase HCK (Homo sapiens) (UniProt P08631); test: Inhibition of HcK (unknown origin) at 1 uM
Tyrosine-protein kinase HCK (Homo sapiens), sequence (P08631 2-526 limits assumed): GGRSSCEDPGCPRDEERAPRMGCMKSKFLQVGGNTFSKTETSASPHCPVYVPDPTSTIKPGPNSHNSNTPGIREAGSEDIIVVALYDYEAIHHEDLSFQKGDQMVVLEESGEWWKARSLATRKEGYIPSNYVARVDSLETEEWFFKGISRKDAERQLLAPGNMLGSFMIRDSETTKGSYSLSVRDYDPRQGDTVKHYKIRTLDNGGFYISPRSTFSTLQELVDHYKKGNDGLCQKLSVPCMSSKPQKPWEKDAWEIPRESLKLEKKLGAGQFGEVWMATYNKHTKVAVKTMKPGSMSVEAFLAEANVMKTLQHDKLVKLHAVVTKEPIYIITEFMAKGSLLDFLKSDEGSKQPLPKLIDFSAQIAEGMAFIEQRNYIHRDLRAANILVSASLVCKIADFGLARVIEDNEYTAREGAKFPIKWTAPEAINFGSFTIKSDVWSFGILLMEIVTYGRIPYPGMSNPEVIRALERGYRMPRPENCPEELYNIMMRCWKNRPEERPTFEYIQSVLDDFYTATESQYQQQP

[10] = target: Tyrosine-protein kinase TXK (Homo sapiens) (UniProt P42681); test: Inhibition of Txk (unknown origin) at 1 uM
Tyrosine-protein kinase TXK (Homo sapiens), sequence (P42681 whole entry): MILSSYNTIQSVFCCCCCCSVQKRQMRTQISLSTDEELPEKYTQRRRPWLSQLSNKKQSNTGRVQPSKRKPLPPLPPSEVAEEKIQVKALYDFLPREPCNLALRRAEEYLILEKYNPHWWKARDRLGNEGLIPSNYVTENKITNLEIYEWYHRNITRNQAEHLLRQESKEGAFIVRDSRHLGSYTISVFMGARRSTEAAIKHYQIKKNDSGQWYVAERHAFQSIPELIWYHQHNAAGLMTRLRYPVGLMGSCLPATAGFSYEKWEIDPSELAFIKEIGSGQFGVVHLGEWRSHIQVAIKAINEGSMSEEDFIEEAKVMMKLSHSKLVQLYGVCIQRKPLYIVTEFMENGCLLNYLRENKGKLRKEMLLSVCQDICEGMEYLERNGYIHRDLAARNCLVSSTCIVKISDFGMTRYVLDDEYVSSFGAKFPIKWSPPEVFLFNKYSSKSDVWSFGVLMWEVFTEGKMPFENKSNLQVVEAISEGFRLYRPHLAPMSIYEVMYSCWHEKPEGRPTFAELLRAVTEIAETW

[11] = AUC (0 to t) in Sprague-Dawley rat at 5 mg/kg, iv measured upto 24 hrs by LC/MS/MS analysis; format: ADME, organism-based; design: time < 24 hrs, dose 5 mg/kg, route iv; details: in vivo
[12] = Half life in Sprague-Dawley rat at 5 mg/kg, iv measured upto 24 hrs by LC/MS/MS analysis; format: ADME, organism-based; details: in vivo
[13] = Clearance in Sprague-Dawley rat at 5 mg/kg, iv measured upto 24 hrs by LC/MS/MS analysis; format: ADME, organism-based; details: in vivo
[14] = Half life in Sprague-Dawley rat at 10 mg/kg, po measured upto 24 hrs by LC/MS/MS analysis; format: ADME, organism-based; details: in vivo
[15] = Tmax in Sprague-Dawley rat at 10 mg/kg, po measured upto 24 hrs by LC/MS/MS analysis; format: ADME, organism-based; details: in vivo
BMDM [16] = test: Cytotoxicity against C57BL/6J mouse BMDM cells assessed as cell viability upto 500 nM preincubated for 1 hr followed by LPS stimulation measured after 2 to 4 hrs by CCK8 assay; format: toxicity, cell-based; details: 0.5 µM, time 3-5 hrs
BMDM [17] = test: Anti-inflammatory activity against C57BL/6J mouse BMDM cells assessed as increase in IL-10 level at 500 nM preincubated for 1 hr followed by LPS stimulation measured after 2 to 8 hrs by ELISA method; format: functional, cell-based; details: time 3-9 hrs
BMDM [18] = test: Anti-inflammatory activity against C57BL/6J mouse BMDM cells assessed as decrease in IL-12 level at 500 nM preincubated for 1 hr followed by LPS stimulation measured after 4 to 8 hrs by ELISA method; format: functional, cell-based; details: time 5-9 hrs
BMDM [19] = test: Anti-inflammatory activity against C57BL/6J mouse BMDM cells assessed as decrease in IL-12 level upto 500 nM preincubated for 1 hr followed by LPS stimulation measured after 8 hrs by ELISA method; format: functional, cell-based; details: time 9.0 hrs
[20] = target: Serine/threonine-protein kinase SIK2 (Mus musculus) (UniProt Q8CFH6); test: Inhibition of SIK2 in C57BL/6J mouse BMDM cells assessed as increase in Nurr77 mRNA level at 500 nM preincubated for 1 hr followed by LPS stimulation measured for 2 to 4 hrs by qPCR analysis; format: cell-based; details: time 3-5 hrs
Serine/threonine-protein kinase SIK2 (Mus musculus), sequence (Q8CFH6 whole entry): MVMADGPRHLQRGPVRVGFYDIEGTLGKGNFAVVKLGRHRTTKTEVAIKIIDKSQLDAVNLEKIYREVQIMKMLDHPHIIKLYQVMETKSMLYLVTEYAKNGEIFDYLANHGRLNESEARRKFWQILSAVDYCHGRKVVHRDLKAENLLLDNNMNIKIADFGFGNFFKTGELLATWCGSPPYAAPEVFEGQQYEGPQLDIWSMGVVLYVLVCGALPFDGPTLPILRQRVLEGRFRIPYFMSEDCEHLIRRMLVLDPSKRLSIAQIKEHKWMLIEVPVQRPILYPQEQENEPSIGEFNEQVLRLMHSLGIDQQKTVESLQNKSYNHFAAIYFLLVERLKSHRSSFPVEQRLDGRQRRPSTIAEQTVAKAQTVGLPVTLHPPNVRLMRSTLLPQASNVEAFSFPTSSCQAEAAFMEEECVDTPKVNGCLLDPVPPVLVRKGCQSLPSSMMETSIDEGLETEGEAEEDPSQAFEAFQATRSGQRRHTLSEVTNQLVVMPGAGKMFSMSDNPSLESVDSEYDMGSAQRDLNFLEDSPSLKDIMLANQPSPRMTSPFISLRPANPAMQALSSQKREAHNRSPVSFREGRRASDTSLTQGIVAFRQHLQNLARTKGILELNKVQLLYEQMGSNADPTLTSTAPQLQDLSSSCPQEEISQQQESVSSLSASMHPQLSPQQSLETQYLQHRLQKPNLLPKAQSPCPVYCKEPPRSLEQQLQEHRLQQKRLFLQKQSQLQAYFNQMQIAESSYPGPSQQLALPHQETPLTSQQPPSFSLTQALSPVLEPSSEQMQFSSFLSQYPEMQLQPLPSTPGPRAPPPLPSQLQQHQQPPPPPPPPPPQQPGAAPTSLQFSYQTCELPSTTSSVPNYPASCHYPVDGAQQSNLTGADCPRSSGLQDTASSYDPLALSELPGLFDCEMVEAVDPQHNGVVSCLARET

[21] = target: Serine/threonine-protein kinase SIK2 (Mus musculus) (UniProt Q8CFH6); test: Inhibition of SIK2 in C57BL/6J mouse BMDM cells assessed as increase in IL-12 mRNA level at 500 nM preincubated for 1 hr followed by LPS stimulation measured after 8 hrs by qPCR analysis; format: cell-based; details: time 9.0 hrs
BMDM [22] = test: Upregulation of CREB-dependent gene transcription in C57BL/6J mouse BMDM cells assessed as CRTC3 translocation to nucleus at 500 nM preincubated for 1 hr followed by LPS stimulation measured after 1 hr by immunofluorescence analysis; format: functional, cell-based; details: time 2.0 hrs
[23] = target: Serine/threonine-protein kinase SIK2 (Mus musculus) (UniProt Q8CFH6); test: Inhibition of SIK2 in C57BL/6J mouse BMDM cells assessed as increase in LIGHT mRNA level at 500 nM preincubated for 1 hr followed by LPS stimulation measured upto 8 hrs by qPCR analysis; format: cell-based; details: time <= 9.0 hrs
Mus musculus [24] = test: Antiinflammatory activity in DSS-induced colitis C57BL/6J mouse model assessed as increase in body weight at 7.5 to 30 mg/kg, ip; format: functional, organism-based; details: dose 7.5-30 mg/kg
Mus musculus [25] = test: Antiinflammatory activity in DSS-induced colitis C57BL/6J mouse model assessed as decrease in disease activity index at 7.5 to 30 mg/kg, ip; format: functional, organism-based; details: dose 7.5-30 mg/kg
[26] = Toxicity in DSS-induced colitis C57BL/6J mouse model at 30 mg/kg, ip; format: organism-based; details: in vivo
Mus musculus [27] = test: Antiinflammatory activity in DSS-induced colitis C57BL/6J mouse model assessed as increase in colon length at 50 to 100 mg/kg, po measured after 12 days; format: functional, organism-based; details: dose 50-100 mg/kg, time 12.0 day

Serine/threonine-protein kinase SIK1, sequence (P57059 whole entry): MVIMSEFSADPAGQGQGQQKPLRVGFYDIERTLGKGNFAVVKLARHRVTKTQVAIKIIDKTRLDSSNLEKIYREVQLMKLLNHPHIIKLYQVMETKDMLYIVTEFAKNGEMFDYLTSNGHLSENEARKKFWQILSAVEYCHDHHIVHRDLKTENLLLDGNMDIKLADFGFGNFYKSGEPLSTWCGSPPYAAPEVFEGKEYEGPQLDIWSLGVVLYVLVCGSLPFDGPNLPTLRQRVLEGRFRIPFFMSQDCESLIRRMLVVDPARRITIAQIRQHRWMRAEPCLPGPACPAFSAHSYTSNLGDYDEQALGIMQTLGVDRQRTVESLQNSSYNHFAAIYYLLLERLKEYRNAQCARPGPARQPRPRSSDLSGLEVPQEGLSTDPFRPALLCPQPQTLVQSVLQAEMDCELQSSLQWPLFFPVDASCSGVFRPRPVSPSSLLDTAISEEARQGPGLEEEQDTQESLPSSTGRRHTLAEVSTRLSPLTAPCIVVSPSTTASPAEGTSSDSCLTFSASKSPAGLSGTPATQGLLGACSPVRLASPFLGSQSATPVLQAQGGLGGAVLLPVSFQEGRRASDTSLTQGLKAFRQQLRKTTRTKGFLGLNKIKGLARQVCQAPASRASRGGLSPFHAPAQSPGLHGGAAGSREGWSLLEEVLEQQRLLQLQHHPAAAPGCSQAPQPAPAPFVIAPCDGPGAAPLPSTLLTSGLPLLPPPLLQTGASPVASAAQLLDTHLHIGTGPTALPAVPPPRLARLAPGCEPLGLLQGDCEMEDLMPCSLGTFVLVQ

For `Cc1cccc(F)c1NC(=O)c1cnc(Nc2ccc(N3CCN(C)CC3)c(F)c2)nc1NC1CCC1`, the IC50 [1] was 24 nM, the half-life [2] was > 120 min and the Ratio IC50 [3] was 3. For the same compound, the Ratio IC50 [4] was 18.3, the inhibition [5] was “Active” and the inhibition [6] was “Active”. For the same compound, the inhibition [7] was “Active”, the inhibition [8] was “Active” and the inhibition [9] was “Active”. The inhibition [10] was “Active”, the AUC(0-t) at 24 h [11] was 20300 ng·h/mL and the half-life [12] was 690 min. For the same compound, the clearance [13] was 3.33 mL/min/kg, the half-life [14] was 1030 min and the Tmax [15] was 8 h. The Activity (BMDM [16]) was “Non-Toxic”, the Activity (BMDM [17]) was “Active” and the Activity (BMDM [18]) was “inactive”. The Activity (BMDM [19]) was “Active”, the inhibition [20] was “inactive” and the inhibition [21] was “inactive”. The Activity (BMDM [22]) was “Active”, the inhibition [23] was “Active” and the Activity (Mus musculus [24]) was “Active”. The Activity (Mus musculus [25]) was “Active”, the Activity [26] was “Toxic” and the Activity (Mus musculus [27]) was “Active”.
